Assay results as given in US20210254272A1, “TEXTILES HAVING ANTIMICROBIAL PROPERTIES” (Livinguard AG, priority 2015, published 2021).

System: E. coli (ATCC 25922)
Experiment: AATCC Test Method 100-2012 antibacterial activity of the treated textile, after 25 washes and 12 abrasion cycles, contact time 60 minutes
Assay type: cell-based
Conditions: for Performance Test-Log reduction of antimicrobial performance: pad process, 2 min
Protocol: The antibacterial activity of the textile was tested in accordance with AATCC Test Method 100-2012. Prior to the test, the fabric was cut into coupons of 2×4 inches and washed separately 25 times, and exposed to 12 abrasion cycles, as per US EPA protocol 90072PA4 (described further below). The tests were made against E. coli (ATCC 25922). Contact time was 60 minutes, after inoculating with 10^8 CFU per coupon.

Substance: Silver
- Performance Test-Log reduction of antimicrobial performance (single agent 5 gm/lit, curing 180° C.): 1.11 Log
- Performance Test-Log reduction of antimicrobial performance (single agent 10 gm/lit, curing 120° C.): 0.37 Log
- Performance Test-Log reduction of antimicrobial performance (single agent 10 gm/lit, curing 140° C.): 0.48 Log
- Performance Test-Log reduction of antimicrobial performance (single agent 10 gm/lit, curing 150° C.): 0.58 Log
- Performance Test-Log reduction of antimicrobial performance (single agent 10 gm/lit, curing 160° C.): 0.95 Log
- Performance Test-Log reduction of antimicrobial performance (single agent 10 gm/lit, curing 180° C.): 2.11 Log
- Log reduction of antimicrobial performance (pure cotton fabric, exhaust 80° C., 60 min, dosage 0.1% o.w.f): 0.55 Log
- Log reduction of antimicrobial performance (pure cotton fabric, exhaust 80° C., 60 min, dosage 0.2% o.w.f): 1.35 Log
- Log reduction of antimicrobial performance (pure cotton fabric, exhaust 80° C., 60 min, dosage 0.5% o.w.f): 1.67 Log
- Log reduction of antimicrobial performance (pure cotton fabric, exhaust 80° C., 60 min, dosage 0.8% o.w.f): 1.84 Log
- Log reduction of antimicrobial performance (pure cotton fabric, exhaust 80° C., 60 min, dosage 1.0% o.w.f): 2.87 Log
- Log reduction of antimicrobial performance (pure cotton, exhaust 80° C., 1% o.w.f, 60 min, curing 180° C., curing dwell time 0.5 min): 0.4 Log
- Log reduction of antimicrobial performance (pure cotton, exhaust 80° C., 1% o.w.f, 60 min, curing 180° C., curing dwell time 1.0 min): 0.6 Log
- Log reduction of antimicrobial performance (pure cotton, exhaust 80° C., 1% o.w.f, 60 min, curing 180° C., curing dwell time 1.5 min): 1.4 Log
- Log reduction of antimicrobial performance (pure cotton, exhaust 80° C., 1% o.w.f, 60 min, curing 180° C., curing dwell time 2.0 min): 2.9 Log
- Log reduction of antimicrobial performance (pure cotton, exhaust 80° C., 1% o.w.f, 60 min, curing 180° C., curing dwell time 2.5 min): 2.2 Log
- Log reduction of antimicrobial performance (pure cotton, exhaust 80° C., 1% o.w.f, 60 min, curing 180° C., curing dwell time 3.0 min): 1.2 Log
- Log reduction of antimicrobial performance (pure polyester fabric, exhaust 80° C., 60 min, curing 180° C., curing dwell time 0.5 min): 0.5 Log
- Log reduction of antimicrobial performance (pure polyester fabric, exhaust 80° C., 60 min, curing 180° C., curing dwell time 1.0 min): 0.9 Log
- Log reduction of antimicrobial performance (pure polyester fabric, exhaust 80° C., 60 min, curing 180° C., curing dwell time 1.5 min): 1.4 Log
- Log reduction of antimicrobial performance (pure polyester fabric, exhaust 80° C., 60 min, curing 180° C., curing dwell time 2.0 min): 2.68 Log
- Log reduction of antimicrobial performance (pure polyester fabric, exhaust 80° C., 60 min, curing 180° C., curing dwell time 2.5 min): 2.21 Log
- Log reduction of antimicrobial performance (pure polyester fabric, exhaust 80° C., 60 min, curing 180° C., curing dwell time 3.0 min): 1.2 Log
- Log reduction of antimicrobial performance (pure polyester fabric, exhaust 80° C., 60 min, dosage 0.1% o.w.f): 0.55 Log
- Log reduction of antimicrobial performance (pure polyester fabric, exhaust 80° C., 60 min, dosage 0.2% o.w.f): 1.43 Log
- Log reduction of antimicrobial performance (pure polyester fabric, exhaust 80° C., 60 min, dosage 0.5% o.w.f): 1.78 Log
- Log reduction of antimicrobial performance (pure polyester fabric, exhaust 80° C., 60 min, dosage 0.8% o.w.f): 1.83 Log
- Log reduction of antimicrobial performance (pure polyester fabric, exhaust 80° C., 60 min, dosage 1.0% o.w.f): 2.67 Log
- Log reduction of antimicrobial performance (solution dosage 0.10% o.w.f, exhaust temperature 40° C., process time 60 min): 0 Log
- Log reduction of antimicrobial performance (solution dosage 0.10% o.w.f, exhaust temperature 60° C., process time 60 min): 0 Log
- Log reduction of antimicrobial performance (solution dosage 0.10% o.w.f, exhaust temperature 65° C., process time 60 min): 0 Log
- Log reduction of antimicrobial performance (solution dosage 0.10% o.w.f, exhaust temperature 70° C., process time 60 min): 0 Log
- Log reduction of antimicrobial performance (solution dosage 0.10% o.w.f, exhaust temperature 75° C., process time 60 min): 0.21 Log
- Log reduction of antimicrobial performance (solution dosage 0.10% o.w.f, exhaust temperature 80° C., process time 60 min): 0.53 Log
- Log reduction of antimicrobial performance (solution dosage 0.10% o.w.f, exhaust temperature 85° C., process time 60 min): 0.67 Log
- Log reduction of antimicrobial performance (solution dosage 0.10% o.w.f, exhaust temperature 90° C., process time 60 min): 0.68 Log
- Log reduction of antimicrobial performance (solution dosage 0.10% o.w.f, exhaust temperature 95° C., process time 60 min): 0.68 Log
- Log reduction of antimicrobial performance (solution dosage 0.20% o.w.f, exhaust temperature 40° C., process time 60 min): 0 Log
- Log reduction of antimicrobial performance (solution dosage 0.20% o.w.f, exhaust temperature 60° C., process time 60 min): 0.11 Log
- Log reduction of antimicrobial performance (solution dosage 0.20% o.w.f, exhaust temperature 65° C., process time 60 min): 0.12 Log
- Log reduction of antimicrobial performance (solution dosage 0.20% o.w.f, exhaust temperature 70° C., process time 60 min): 0.17 Log
- Log reduction of antimicrobial performance (solution dosage 0.20% o.w.f, exhaust temperature 75° C., process time 60 min): 0.87 Log
- Log reduction of antimicrobial performance (solution dosage 0.20% o.w.f, exhaust temperature 80° C., process time 60 min): 1.32 Log
- Log reduction of antimicrobial performance (solution dosage 0.20% o.w.f, exhaust temperature 85° C., process time 60 min): 1.45 Log
- Log reduction of antimicrobial performance (solution dosage 0.20% o.w.f, exhaust temperature 90° C., process time 60 min): 1.46 Log
- Log reduction of antimicrobial performance (solution dosage 0.20% o.w.f, exhaust temperature 95° C., process time 60 min): 1.46 Log
- Log reduction of antimicrobial performance (solution dosage 0.50% o.w.f, exhaust temperature 40° C., process time 60 min): 0 Log
- Log reduction of antimicrobial performance (solution dosage 0.50% o.w.f, exhaust temperature 60° C., process time 60 min): 0.23 Log
- Log reduction of antimicrobial performance (solution dosage 0.50% o.w.f, exhaust temperature 65° C., process time 60 min): 0.13 Log
- Log reduction of antimicrobial performance (solution dosage 0.50% o.w.f, exhaust temperature 70° C., process time 60 min): 0.18 Log
- Log reduction of antimicrobial performance (solution dosage 0.50% o.w.f, exhaust temperature 75° C., process time 60 min): 1.05 Log
- Log reduction of antimicrobial performance (solution dosage 0.50% o.w.f, exhaust temperature 80° C., process time 60 min): 1.56 Log
- Log reduction of antimicrobial performance (solution dosage 0.50% o.w.f, exhaust temperature 85° C., process time 60 min): 1.76 Log
- Log reduction of antimicrobial performance (solution dosage 0.50% o.w.f, exhaust temperature 90° C., process time 60 min): 1.78 Log
- Log reduction of antimicrobial performance (solution dosage 0.50% o.w.f, exhaust temperature 95° C., process time 60 min): 1.78 Log
- Log reduction of antimicrobial performance (solution dosage 0.80% o.w.f, exhaust temperature 40° C., process time 60 min): 0 Log
- Log reduction of antimicrobial performance (solution dosage 0.80% o.w.f, exhaust temperature 60° C., process time 60 min): 0.36 Log
- Log reduction of antimicrobial performance (solution dosage 0.80% o.w.f, exhaust temperature 65° C., process time 60 min): 0.37 Log
- Log reduction of antimicrobial performance (solution dosage 0.80% o.w.f, exhaust temperature 70° C., process time 60 min): 0.42 Log
- Log reduction of antimicrobial performance (solution dosage 0.80% o.w.f, exhaust temperature 75° C., process time 60 min): 1.13 Log
- Log reduction of antimicrobial performance (solution dosage 0.80% o.w.f, exhaust temperature 80° C., process time 60 min): 1.84 Log
- Log reduction of antimicrobial performance (solution dosage 0.80% o.w.f, exhaust temperature 85° C., process time 60 min): 1.94 Log
- Log reduction of antimicrobial performance (solution dosage 0.80% o.w.f, exhaust temperature 90° C., process time 60 min): 1.95 Log
- Log reduction of antimicrobial performance (solution dosage 0.80% o.w.f, exhaust temperature 95° C., process time 60 min): 1.95 Log
- Log reduction of antimicrobial performance (solution dosage 1.00% o.w.f, exhaust temperature 40° C., process time 60 min): 0 Log
- Log reduction of antimicrobial performance (solution dosage 1.00% o.w.f, exhaust temperature 60° C., process time 60 min): 0.41 Log
- Log reduction of antimicrobial performance (solution dosage 1.00% o.w.f, exhaust temperature 65° C., process time 60 min): 0.42 Log
- Log reduction of antimicrobial performance (solution dosage 1.00% o.w.f, exhaust temperature 70° C., process time 60 min): 0.52 Log
- Log reduction of antimicrobial performance (solution dosage 1.00% o.w.f, exhaust temperature 75° C., process time 60 min): 1.23 Log
- Log reduction of antimicrobial performance (solution dosage 1.00% o.w.f, exhaust temperature 80° C., process time 60 min): 2.78 Log
- Log reduction of antimicrobial performance (solution dosage 1.00% o.w.f, exhaust temperature 85° C., process time 60 min): 2.85 Log
- Log reduction of antimicrobial performance (solution dosage 1.00% o.w.f, exhaust temperature 90° C., process time 60 min): 2.86 Log
- Log reduction of antimicrobial performance (solution dosage 1.00% o.w.f, exhaust temperature 95° C., process time 60 min): 2.86 Log
